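Protocol summary: plate cells (96-well), add compound at 5 concentrations, incubate 48 h, interpolate endpoints linearly. TGI: concentration producing complete growth inhibition.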 Where a SMILES comes first, the peptide text is derived from it. [ ]: non-standard residue; d: D form. The star is where a group is joined. NMeF = CN[CH](Cc1ccccc1)C(=O)O; NMeV = CN[CH](C(=O)O)C(C)C; Boc = CC(C)(C)OC(=O)*
Legend:
Assay in all cases: NCI-60 cell line screen, 48 h
[1] = test system: 786-0 renal
[2] = test system: A498 renal
[3] = test system: A549 NSCLC
[4] = test system: ACHN renal
[5] = test system: CAKI-1 renal
[6] = test system: CCRF-CEM leukemia
[7] = test system: DLD-1 colon
[8] = test system: DMS 114 small cell lung
[9] = test system: DMS 273 small cell lung
[10] = test system: EKVX NSCLC
[11] = test system: HCC-2998 colon
[12] = test system: HCT-116 colon
[13] = test system: HCT-15 colon
[14] = test system: HL-60(TB) leukemia
[15] = test system: HOP-62 NSCLC
[16] = test system: HT29 colon
[17] = test system: IGROV1 ovarian
[18] = test system: K-562 leukemia
[19] = test system: KM12 colon
[20] = test system: KM20L2 colon
[21] = test system: LXFL 529 NSCLC
[22] = test system: M14 melanoma
[23] = test system: M19-MEL melanoma
[24] = test system: MALME-3M melanoma
[25] = test system: MOLT-4 leukemia
[26] = test system: NCI-H226 lung
[27] = test system: NCI-H23 lung
[28] = test system: NCI-H460 lung
[29] = test system: OVCAR-3 ovarian
[30] = test system: OVCAR-4 ovarian
[31] = test system: OVCAR-5 ovarian
[32] = test system: OVCAR-8 ovarian
[33] = test system: RPMI-8226 leukemia
[34] = test system: RXF 393 renal
[35] = test system: SF-295 CNS
[36] = test system: SF-539 CNS
[37] = test system: SK-MEL-2 melanoma
[38] = test system: SK-MEL-28 melanoma
[39] = test system: SK-MEL-5 melanoma
[40] = test system: SK-OV-3 ovarian
[41] = test system: SNB-75 CNS
[42] = test system: SNB-78 CNS
[43] = test system: SW-620 colon
[44] = test system: TK-10 renal
[45] = test system: U251 CNS
[46] = test system: UACC-257 melanoma
[47] = test system: UACC-62 melanoma
[48] = test system: UO-31 renal
[49] = test system: XF 498 CNS
[50] = test system: COLO 205 colon
[51] = test system: HOP-92 NSCLC
[52] = test system: LOX IMVI melanoma
[53] = test system: NCI-H522 lung
[54] = test system: SF-268 CNS
[55] = test system: SN12C renal
[56] = test system: SNB-19 CNS
[57] = test system: SR leukemia

Measured: TGI

C[C@]12CC[C@H](O)CC1=CC[C@@H]1C2CC[C@]2(C)NC(=O)C(C#N)CC12 (some centres undefined)
not listed: [50] | [51] | [52] | [53] | [54] | [55] | [56] | [57]
> 100 µM: all other assays above

O=c1nc2n(c3nsnc13)CCO2
not listed: [2] | [30] | [35] | [42]
> 100 µM: all other assays above

CC(C)C(NC(=O)OC(C)(C)C)C(=O)N(C)C(Cc1ccccc1)C(=O)N(C)C(C(=O)N(C)C(C(=O)O)C(C)C)C(C)C (centres undefined) (Boc-V[NMeF][NMeV][NMeV]-OH; configuration not given here)
not listed: [2] | [5] | [7] | [30] | [31] | [37] | [40] | [41] | [42] | [51]
> 100 µM: all other assays above
